Read-outs that look alike come from different tables or passages of the source. Values belong to the molecule of their own block, whether it stands above or below them. Positions of bridges follow the written chain, without caps; N, C: chain ends. Residues, ends and D or L forms follow the SMILES beside them. Chains are numbered I, II in the order given. No end group written: not given here.
Legend:
[1] = test system: CTLL-2 cell line; settings: for activity relative to the original peptide of WO2006/029578 (fold): IL-15-dependent proliferation of CTLL-2; for inhibitory effect of the peptide (in words): from the IC50 values of Table 1; for IC50: 72 h
Experimental: To evaluate the neutralizing capacity of the peptides of the present invention, serial dilutions of these peptides were carried out in 96-well plates (Costar, USA) in a 25 μL volume of RPMI medium (Gibco) supplemented at 10% with calf fetal serum (Gibco). […]
Incubation was carried out for 72 h at 37° C. and 5% CO2. […] MTT is reduced to red formazan by the mitochondrial dehydrogenase of live cells.

[2] = test system: KiT225 cell line; assay: IL-15-induced proliferation assay of the Kit225 cell line (MTT); format: cell-based, human; settings: IL-15 300 pg/mL, serial dilutions of peptide; FIG. 3
Experimental: To evaluate the neutralizing capacity of the peptides of the present invention, serial dilutions of these peptides were carried out in 96-well plates (Costar, USA) in a 25 μL volume of RPMI medium (Gibco) supplemented at 10% with calf fetal serum (Gibco). Previously washed CTLL-2 or KiT225 cells were added at 5×10^3 cells/well and incubated for 30 min, and a saturating amount of 300 pg/mL IL-15 was added per well.
The antagonistic activity of the peptides was also evaluated, by varying the concentration of IL-15 at a fix concentration of 260 μM of each peptide. Incubation was carried out for 72 h at 37° C. and 5% CO2. Proliferation was assessed by using the MTT mitochondrial staining method (Cosman et al., Nature 1984, 312: 768-771). MTT is reduced to red formazan by the mitochondrial dehydrogenase of live cells. The IC50 was determined to each peptide at a IL-15 concentration of 300 pg/mL.

[3] = test system: prostate cancer cell line PC-3; assay: IL-15Rα-induced IL-6 and IL-8 mRNA expression in PC-3 cells (real time RT-PCR); format: cell-based; settings: peptide 100 μg/mL, IL15-Rα 1 ng/mL
Experimental: The experiment was carried out in 24-well plates by incubating 1.5×10^6 cells with peptides SEQ ID No. 1 and SEQ ID No. 12 at 100 μg/mL and IL15-Rα (1 ng/mL), and also combinations of IL15-Rα and peptides SEQ ID No. 1 and SEQ ID No. 12.
The RNA was isolated by the TriReagent method (Sigma) and analyzed by measuring the O.D. 260/280 nm ratio and Agarose gel electrophoresis. The real time reverse transcription and polymerase chain reaction were carried out by using the Quantitect Reverse Transcription Kit and QuantiTect SYBR Green PCR (QIAGEN) in a Rotor Gene 6000 equipment.

[4] = test system: synovial fluid cells of RA patients; assay: IL-15-mediated TNFα production in synovial fluid cells of RA patients (ELISA); format: cell-based, human; settings: peptide 50 μg/mL plus IL-15 60 ng/mL, 48 h; heading says peptide as a dimer; FIG. 6
Experimental: After obtaining a written informed consent, synovial fluid from RA patients was extracted and incubated with hyaluronidase at 10 μg per mL of fluid for 45 min at 37° C. Synovial fluid cells were obtained after centrifugation at 1200 rpm for 10 min.
Cells were incubated in 96-well plated at 2×10^5 cells per well with 50 μg/mL of peptide and 60 ng/mL of IL-15 and also a combination of peptide plus IL-15. After incubation for 48 h, supernatants were collected and stored at −70° C. until evaluation. The amount of TNFα was quantified by EL ISA (R&D DTA50).

[5] = test system: skin graft from a psoriasis patient; assay: Xenotransplant SCID mice model of human psoriasis; format: in vivo; settings: 10 mg/kg, alternate days for two weeks; for grade of parakeratosis in the psoriatic lesion / keratinocytes' cycles / number of inflammatory cells / thickness of the epidermis: H & E; for severity of the disease: biopsy one week after last injection
Experimental: Two to three months-old SCID mice were transplanted with a skin graft of 1.5 cm×1.5 cm from a psoriasis patient. Three weeks after, mice were randomized and distributed in three groups: placebo, mice treated with peptide SEQ ID No. 12 at 10 mg/kg of body weight and cyclosporin A at 10 mg/kg in alternate days for two weeks. One week after the last injection, mice were sacrificed and a 4 mm biopsy was taken from each xenotransplant. Biopsies were fixed in formalin for paraffin embedding, and were stained with hematoxilin and eosin dyes (H & E).

[6] = biological target: human IL-15Rα (Homo sapiens, UniProt Q13261); assay: Competition ELISA, displacement of binding of IL-15 to IL-15Rα
Experimental: Peptide binding to the IL15-Rα was characterized by ELISA. Briefly, 96-well plates were coated with purified IL-15 in phosphate buffered saline (PBS) and blocked with bovine albumin at 1% in PBS. Dilutions of each peptide were added to the wells and plates were incubated for 1 h at 37° C. The plates were washed with PBS-Tween 20 and incubated with an IL-15Rα-Fc for 1 h at 37° C. Plates were washed again with PBS-Tween 20 and further incubated an anti Fc-human IgG-peroxidase conjugate for 1 h at 37° C. After washing, the antigen-antibody reaction was run by adding the substrate and 3,3′,5,5′-Tetramethylbenzidine (TMB), and O.D. was read at 450 nm.

[7] = biological target: IL-15Rα subunit (Homo sapiens, UniProt Q13261); settings: IL-15 binding to IL-15Rα; cited from earlier work
[8] = test system: CTLL-2 cell line and peripheral blood mononuclear cells (PBMC); settings: CTLL-2 cell line and PBMC; cited from earlier work

Chain of human IL-15Rα (Q13261 31-205 limits assumed): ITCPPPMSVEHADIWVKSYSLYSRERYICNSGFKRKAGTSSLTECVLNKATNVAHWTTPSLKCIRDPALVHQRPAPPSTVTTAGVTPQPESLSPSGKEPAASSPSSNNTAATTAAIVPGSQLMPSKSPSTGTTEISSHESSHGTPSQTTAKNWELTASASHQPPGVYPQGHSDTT
Chain of IL-15Rα subunit (Q13261 31-267): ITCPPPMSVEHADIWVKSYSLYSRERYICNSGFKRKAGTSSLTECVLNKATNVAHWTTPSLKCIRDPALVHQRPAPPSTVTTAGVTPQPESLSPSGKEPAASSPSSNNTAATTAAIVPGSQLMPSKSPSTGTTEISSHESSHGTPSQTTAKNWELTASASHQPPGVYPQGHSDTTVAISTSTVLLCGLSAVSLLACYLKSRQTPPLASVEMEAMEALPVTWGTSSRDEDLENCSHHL

Molecule: KVTAMECFLL
activity relative to the original peptide of WO2006/029578 (fold) [1]: ten-fold
inhibitory effect of the peptide (in words) [1]: loss of the inhibitory effect

IC50 [1]: 24.6 µM
Molecule: KVTAMTCFLL-NH2 [KVTAMTCFLL]
activity relative to the original peptide of WO2006/029578 (fold) ([1]; listed as Lys-Thr mutant): five-fold
antagonistic activity at varying IL-15 concentration ([1]; fixed peptide concentration 260 μM, IL-15 75, 150, 300 pg/mL, FIG. 4): dependence of the antagonistic activity
inhibitory effect on IL-15-induced proliferation of Kit225 [2]: inhibitory effect depending on the concentration of the peptide
IL15-Rα-mediated transcription of IL-8 ([3]; FIG. 5A): inhibits transcription
IL15-Rα-mediated transcription of IL-6 ([3]; FIG. 5B): inhibits transcription
TNFα secretion [4]: inhibits TNFα secretion
grade of parakeratosis in the psoriatic lesion [5]: lowered grade
keratinocytes' cycles [5]: significantly decreased
number of inflammatory cells [5]: significantly decreased
thickness of the epidermis [5]: significant reduction
severity of the disease [5]: reduction in the severity of the disease
capacity to bind to the IL-15Rα [6]: retains the capacity to bind to the IL-15Rα

Molecule: KATAMKCFLL-NH2 [KATAMKCFLL]
IC50 [1]: 130 µM

displacement of binding of IL-15 to IL-15Rα ([6]; ELISA, IL-15 coated plate, IL-15Rα-Fc, FIG. 2): does not displace
Molecule: KVTAMKAFLL
inhibitory effect of the peptide (in words) [1]: loss of the inhibitory effect

Molecule: IL-15: 14-15 kDa cytokine, T cell activating factor
Kd [7]: 0.01 nM

IC50 [1]: 57.7 µM
Molecule: KVTAMTCYLL-NH2 [KVTAMTCYLL]

Molecule: KVAAMKCFLL-NH2 [KVAAMKCFLL]
IC50 [1]: 130 µM

IC50 [1]: 8 µM
Molecule: CSCC[C@H](NC(=O)[C@H](C)NC(=O)[C@@H](NC(=O)[C@@H](NC(=O)[C@@H](N)CCCCN)C(C)C)[C@@H](C)O)C(=O)N[C@H](C(=O)N[C@@H](CSSC[C@H](NC(=O)[C@@H](NC(=O)[C@H](CCSC)NC(=O)[C@H](C)NC(=O)[C@@H](NC(=O)[C@@H](NC(=O)[C@@H](N)CCCCN)C(C)C)[C@@H](C)O)[C@@H](C)O)C(=O)N[C@@H](Cc1ccccc1)C(=O)N[C@@H](CC(C)C)C(=O)N[C@@H](CC(C)C)C(N)=O)C(=O)N[C@@H](Cc1ccccc1)C(=O)N[C@@H](CC(C)C)C(=O)N[C@@H](CC(C)C)C(N)=O)[C@@H](C)O [SEQ ID No. 12 dimer] (I: H-KVTAMTCFLL-NH2 / II: H-KVTAMTCFLL-NH2; disulfide I:7-II:7 (inferred); N-terminus assumed)
activity relative to the original peptide of WO2006/029578 (fold) [1]: 15
activity of the dimer relative to the monomer (fold) ([1]; dimer linked through the free Cys): seven times more active
inhibitory effect on IL-15-induced proliferation of Kit225 [2]: higher inhibitory effect
grade of parakeratosis in the psoriatic lesion [5]: lowered grade
keratinocytes' cycles [5]: significantly decreased
number of inflammatory cells [5]: significantly decreased
thickness of the epidermis [5]: significant reduction
severity of the disease [5]: reduction in the severity of the disease

Molecule: KVTAMKCFAL-NH2 [KVTAMKCFAL]
IC50 [1]: 200 µM

Molecule: KVTAMKSFLL
inhibitory effect of the peptide (in words) [1]: loss of the inhibitory effect

Molecule: KVTAMKCFLA-NH2 [KVTAMKCFLA]
IC50 [1]: 260 µM

IC50 [1]: 130 µM
Molecule: KVTAAKCFLL-NH2 [KVTAAKCFLL]

Molecule: KVTAMKCFLL-NH2 [KVTAMKCFLL, reference compound]
IC50 [1]: 130 µM

B1: 146B7: Genmab antibody specific for IL-15, targets the region interacting with IL-15Rγ (antibody, chains of the INN, looked up, V domains shown)
VH: EVQLVQSGAEVKKPGESLKISCKVSGYFFTTYWIGWVRQMPGKGLEYMGIIYPGDSDTRYSPSFQGQVTISADKSISTAYLQWSSLKASDTAMYYCARGGNWNCFDYWGQGTLVTVSS
VL: EIVLTQSPGTLSLSPGERATLSCRASQSVSSSYLAWYQQKPGQAPRLLIYGASRRATGIPDRFSGSGSGTDFTLTISRLEPEDFAVYYCQRYGSSHTFGQGTKLEIS
inhibition of IL-15-induced cell proliferation [8]: inhibit the IL-15-induced cell proliferation

— patent publication US8431524B2, “Peptide antagonist of interleukin-15 activity” (Centro de Ingenieria Genetica y Biotecnologia, priority 2008, dated 2013)
